Laboratory results from the supplement of paper PMC12137928.
Structures can show the parent of a compound that is named as a salt.

What was measured:
HCT116 [1] = conditions: 72 h
Summary of the method: (§1)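 IC50 and maximal efficacy were derived from four-parameter Hill curve fits. The underlying CellTiter-Glo luminescence was scaled so that vehicle equals 0% and positive control equals -100%, and was then pattern-corrected. HCT116 cells had been seeded in 1536-well plates at 250 per well.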

HCT116 [2] = test: efficacy (maximum % inhibition of viability vs DMSO); higher = more cytotoxic; conditions: 72 h
Summary of the method: as §1

SMILES | IC50 cell viability (HCT116 [1]; ICRF193 0 nM) [µM] | IC50 cell viability (HCT116 [1]; ICRF193 200 nM) [µM] | efficacy (HCT116 [2]; ICRF193 0 nM) [%] | efficacy (HCT116 [2]; ICRF193 200 nM) [%]
CN1CCN(CCCN2c3ccccc3Sc3ccc(C(F)(F)F)cc32)CC1 [Fluoperazine dihydrochloride] | 18.3 | 18.3 | 92.3 | 94.5
O=c1[nH]cc(F)c(=O)[nH]1 [Fluorouracil] | 10.3 | 20.6 | 59.5 | 55.4
CCCCCCCCCC(=O)OCCN1CCN(CCCN2c3ccccc3Sc3ccc(C(F)(F)F)cc32)CC1 [Fluphenazine decanoate dihydrochloride] | 20.6 | 20.6 | 81 | 99.6
OCCN1CCN(CCCN2c3ccccc3Sc3ccc(C(F)(F)F)cc32)CC1 [Fluphenazine hydrochloride] | 29.1 | 20.6 | 110 | 104
Cc1cc(C2=NOC(c3cc(Cl)cc(Cl)c3)(C(F)(F)F)C2)ccc1C(=O)NCC(=O)NCC(F)(F)F (stereo not drawn) [Fluralaner] | 18.3 | 29.1 | 96.5 | 104
C[C@@H]1C[C@H]2[C@@H]3C[C@H](F)C4=CC(=O)C=C[C@]4(C)[C@@]3(F)[C@@H](O)C[C@]2(C)[C@@]1(OC(=O)c1ccco1)C(=O)SCF [Fluticasone furoate] | 29.1 | > 45.8 | 83.8 | 
CC(CN1c2ccccc2Sc2ccc(S(=O)(=O)N(C)C)cc21)N(C)C (stereo not drawn) [Fonazine] | 22.4 | 35.5 | 56 | 70.3
C[C@]12Cc3nonc3C[C@@H]1CC[C@@H]1[C@@H]2CC[C@@]2(C)[C@H]1CC[C@]2(C)O [Furazabol] | 18.3 | 23.1 | 46.7 | 51.4
CC/N=C(\NCC)NCCCC[C@H](NC(=O)[C@H](CC(C)C)NC(=O)[C@@H](CCCCN/C(=N/CC)NCC)NC(=O)[C@H](Cc1ccc(O)cc1)NC(=O)[C@H](CO)NC(=O)[C@@H](Cc1cccnc1)NC(=O)[C@@H](Cc1ccc(Cl)cc1)NC(=O)[C@@H](Cc1ccc2ccccc2c1)NC(C)=O)C(=O)N1CCC[C@H]1C(=O)N[C@H](C)C(N)=O [Ganirelix] | 4.61 | 5.17 | 80.9 | 82.7
COc1cc2ncnc(Nc3ccc(F)c(Cl)c3)c2cc1OCCCN1CCOCC1 [Gefitinib] | 20.6 | 29.1 | 86.4 | 98.2
Nc1ccn([C@@H]2O[C@H](CO)[C@@H](O)C2(F)F)c(=O)n1 [Gemcitabine] | 0.092 | 0.0461 | 53.5 | 56
O=c1c(-c2ccc(O)cc2)coc2cc(O)cc(O)c12 [Genistein] | > 45.8 | 16.4 |  | 42.9
C#C[C@]1(O)CC[C@H]2[C@@H]3CCC4=CC(=O)CCC4=C3C=C[C@@]21CC [Gestrinone] | 25.9 | > 45.8 | 56.7 | 
CC[C@@]1(O)C(=O)OCc2c1cc1n(c2=O)Cc2c-1nc1ccccc1c2/C=N/OC(C)(C)C [Gimatecan] | 0.183 | > 45.8 | 48.8 | 
N[C@@H](CCC(=O)N[C@@H](CS)C(=O)NCC(=O)O)C(=O)O [Glutathione] | > 45.8 | 3.18 |  | 79.8
CN(C)c1ccc(C(=C2C=CC(=[N+](C)C)C=C2)c2c(O)c(S(=O)(=O)[O-])cc3cc(S(=O)(=O)O)ccc23)cc1 [Green S] | 18.3 | 10.3 | 93.6 | 79.5
COC1=CC(=O)C[C@@H](C)[C@]12Oc1c(Cl)c(OC)cc(OC)c1C2=O [Griseofulvin] | 29.1 | 20.6 | 66.1 | 65
N=C(N)N/N=C/c1c(Cl)cccc1Cl [Guanabenz] | 23.1 | > 45.8 | 45.5 | 
CCCCN(CCCC)CCC(O)c1cc2c(Cl)cc(Cl)cc2c2cc(C(F)(F)F)ccc12 (stereo not drawn) [Halofantrine] | 23.1 | 20.6 | 66.9 | 87.4
Clc1cc(Cl)c(OCC#CI)cc1Cl [Haloprogin] | 25.9 | 20.6 | 89.7 | 93.8
Oc1c(Cl)cc(Cl)c(Cl)c1Cc1c(O)c(Cl)cc(Cl)c1Cl [Hexachlorophene] | 2.59 | 6.51 | 82.5 | 45.6
CCCCCCCCCCCCCCCC[N+](C)(C)C [Hexadecyltrimethylammonium bromide] | 5.8 | 7.3 | 103 | 91.6
CC[C@H](c1ccc(O)cc1)[C@@H](CC)c1ccc(O)cc1 [Hexestrol] | 16.4 | 20.6 | 69.4 | 64.6
CN1CCCN(C(c2ccccc2)c2ccc(Cl)cc2)CC1 (stereo not drawn) [Homochlorcyclizine] | 20.6 | 29.1 | 71.7 | 84.3
CCCCCC(=O)O[C@]1(C(C)=O)CC[C@H]2[C@@H]3CCC4=CC(=O)CC[C@]4(C)[C@H]3CC[C@@]21C [Hydroxyprogesterone caproate] | > 45.8 | 16.4 |  | 56.4
CC1(C)C(/C=C/C=C/C=C/C=C2\N(CCCCS(=O)(=O)O)c3ccc4ccccc4c3C2(C)C)=[N+](CCCCS(=O)(=O)[O-])c2ccc3ccccc3c21 [INDOCYANINE GREEN] | 29.1 | > 45.8 | 43.6 | 
CC(=O)[C@]1(O)Cc2c(O)c3c(c(O)c2[C@@H](O[C@H]2C[C@H](N)[C@H](O)[C@H](C)O2)C1)C(=O)c1ccccc1C3=O [Idarubicin hydrochloride] | 1.64 | 0.58 | 80.9 | 78.8
COC1=C(OC)C(=O)C(CCCCCCCCCCO)=C(C)C1=O [Idebenone] | 20.6 | 20.6 | 49.5 | 56.6

SMILES | IC50 cell viability (HCT116 [1]; ICRF193 0 nM) [µM] | IC50 cell viability (HCT116 [1]; ICRF193 200 nM) [µM] | efficacy (HCT116 [2]; ICRF193 0 nM) [%] | efficacy (HCT116 [2]; ICRF193 200 nM) [%]
CC[C@H](Nc1ncnc2[nH]cnc12)c1nc2cccc(F)c2c(=O)n1-c1ccccc1 [Idelalisib] | > 45.8 | 29.1 |  | 42.6
COc1cc(C(C)=O)ccc1OCCCN1CCC(c2noc3cc(F)ccc23)CC1 [Iloperidone] | > 45.8 | 23.1 |  | 49.6
C=CCOC(Cn1ccnc1)c1ccc(Cl)cc1Cl (stereo not drawn) [Imazalil sulfate] | > 45.8 | 29.1 |  | 44.8
CN(C)CCCN1c2ccccc2CCc2ccccc21 [Imipramine] | > 45.8 | 13 |  | 40.6
CCc1cc2c(cc1CC)CC(NC[C@H](O)c1ccc(O)c3[nH]c(=O)ccc13)C2 [Indacaterol (maleate)] | 18.3 | 20.6 | 82.9 | 91.6
C/C=C(/C)C(=O)O[C@H]1C(C)=C[C@]23C(=O)[C@@H](C=C(CO)[C@@H](O)[C@]12O)[C@H]1[C@@H](C[C@H]3C)C1(C)C [Ingenol mebutate] | > 45.8 | 23.1 |  | 60.3
Oc1c(I)cc(I)c2cccnc12 [Iodoquinol] | 13 | 10.3 | 84.8 | 91.7
CCc1c2c(nc3ccc(OC(=O)N4CCC(N5CCCCC5)CC4)cc13)-c1cc3c(c(=O)n1C2)COC(=O)[C@]3(O)CC [Irinotecan] | 13 | 23.1 | 79.8 | 102
C[C@@H](c1nc(-c2ccc(C#N)cc2)cs1)[C@](O)(Cn1cncn1)c1cc(F)ccc1F [Isavuconazole] | > 45.8 | 8.2 |  | 45.8
Clc1ccc(C(Cn2ccnc2)OCc2c(Cl)cccc2Cl)c(Cl)c1 (stereo not drawn) [Isoconazole nitrate] | 25.9 | 18.3 | 87.5 | 82.6
CCN(CC)c1ccc(C(=C2C=CC(=[N+](CC)CC)C=C2)c2cc(S(=O)(=O)O)ccc2S(=O)(=O)[O-])cc1 [Isosulfan blue] | 29.1 | 18.3 | 76.5 | 78.9
Cc1nnc2n1-c1sc(CCc3ccc(CC(C)C)cc3)cc1C(c1ccccc1Cl)=NC2C (stereo not drawn) [Israpafant] | 16.4 | 23.1 | 98.7 | 114
CC(C)(C)c1cc(C(C)(C)C)c(NC(=O)c2c[nH]c3ccccc3c2=O)cc1O [Ivacaftor] | 18.3 | 18.3 | 96.4 | 98.6
C/C(=C\c1csc(C)n1)[C@@H]1C[C@@H]2O[C@]2(C)CCC[C@H](C)[C@H](O)[C@@H](C)C(=O)C(C)(C)[C@@H](O)CC(=O)N1 [Ixabepilone] | 0.92 | > 45.8 | 72.5 | 
CC(C)C[C@H](NC(=O)CNC(=O)c1cc(Cl)ccc1Cl)B(O)O [Ixazomib] | 0.0651 | 0.058 | 92.8 | 92.6
CC(=O)N1CCN(c2ccc(OCC3COC(Cn4ccnc4)(c4ccc(Cl)cc4Cl)O3)cc2)CC1 (stereo not drawn) [Ketoconazole] | > 45.8 | 13 |  | 55.8
CCOC(=O)[C@@H](N)Cc1ccc(-c2cc(O[C@H](c3ccc(Cl)cc3-n3ccc(C)n3)C(F)(F)F)nc(N)n2)cc1 [LX1606 (Hippurate)] | 11.6 | 16.4 | 64.7 | 102
CCOC(=O)C1=C(C)NC(C)=C(C(=O)OCC)C1c1ccccc1/C=C/C(=O)OC(C)(C)C [Lacidipine] | 18.3 | 20.6 | 94 | 108
CS(=O)(=O)CCNCc1ccc(-c2ccc3ncnc(Nc4ccc(OCc5cccc(F)c5)c(Cl)c4)c3c2)o1 [Lapatinib] | 16.4 | 20.6 | 106 | 110
Cc1oncc1C(=O)Nc1ccc(C(F)(F)F)cc1 [Leflunomide] | 20.6 | 13 | 57.6 | 55.8
COC(=O)C1=C(C)NC(COC(N)=O)=C(C(=O)OC(C)C)C1c1cccc(Cl)c1Cl (stereo not drawn) [Lemildipine] | 23.1 | 25.9 | 76.8 | 76.7
COC(=O)C1=C(C)NC(C)=C(C(=O)OC(C)(C)CN(C)CCC(c2ccccc2)c2ccccc2)C1c1cccc([N+](=O)[O-])c1 (stereo not drawn) [Lercanidipine hydrochloride] | 20.6 | 16.4 | 102 | 89.3
C=CCN1CC[C@]23CCCC[C@H]2[C@H]1Cc1ccc(O)cc13 [Levallorphan] | > 45.8 | 25.9 |  | 42.1
CCCC[C@H](C)C[C@H](O)/C=C/[C@H]1[C@H](O)CC(=O)[C@@H]1CCCC/C=C/C(=O)O [Limaprost] | 20.6 | 16.4 | 81.4 | 77.6
COc1ccc(CN2CCN(C(c3ccc(F)cc3)c3ccc(F)cc3)CC2)c(OC)c1OC [Lomerizine dihydrochloride] | 20.6 | 23.1 | 130 | 104
O=C(NC1CCN(CCCCC2(C(=O)NCC(F)(F)F)c3ccccc3-c3ccccc32)CC1)c1ccccc1-c1ccc(C(F)(F)F)cc1 [Lomitapide] | 16.4 | 20.6 | 117 | 115
CN(C)C(=O)C(CCN1CCC(O)(c2ccc(Cl)cc2)CC1)(c1ccccc1)c1ccccc1 [Loperamide hydrochloride] | 14.6 | 18.3 | 59.4 | 54.9
